Experimental data published in PubChem BioAssay AID2060888 (Molecular Pharmacology Branch, DTP, NCI, 2025).

Tested on: 695427-040-R-J1-PDC complex spheroid viability
Assay: Anticancer human tumor 695427-040-R-J1-PDC patient-derived colon adenocarcinoma cell line growth inhibition [RAS]
Details: for IC50: curve of first compound; for viability, T/C: stronger effect = lower value; active means viability on the fitted dose curve at most 10% of control; inactive means the rest
Summary of the method: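 Multi-cell-type spheroids: tumor cells plus HUVEC endothelial cells and mesenchymal stem cells. RAS-pathway inhibitors were combined with targeted agents, each dosed in half-log steps down from clinical Cmax, or from 10 microM when Cmax was unknown.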

[1] = second compound 0.000949 µM, first compound 0.0316 µM
[2] = second compound 0.000949 µM, first compound 0.1 µM
[3] = second compound 0.000949 µM, first compound 0.316 µM
[4] = second compound 0.000949 µM, first compound 1 µM
[5] = second compound 0.000949 µM, first compound 3.16 µM
[6] = second compound 0.000949 µM, first compound 10 µM
[7] = second compound 0.003 µM, first compound 0.0316 µM
[8] = second compound 0.003 µM, first compound 0.1 µM
[9] = second compound 0.003 µM, first compound 0.316 µM
[10] = second compound 0.003 µM, first compound 1 µM
[11] = second compound 0.003 µM, first compound 3.16 µM
[12] = second compound 0.003 µM, first compound 10 µM
[13] = second compound 0.00949 µM, first compound 0.0316 µM
[14] = second compound 0.00949 µM, first compound 0.1 µM
[15] = second compound 0.00949 µM, first compound 0.316 µM
[16] = second compound 0.00949 µM, first compound 1 µM
[17] = second compound 0.00949 µM, first compound 3.16 µM
[18] = second compound 0.00949 µM, first compound 10 µM
[19] = second compound 0.03 µM, first compound 0.0316 µM
[20] = second compound 0.03 µM, first compound 0.1 µM
[21] = second compound 0.03 µM, first compound 0.316 µM
[22] = second compound 0.03 µM, first compound 1 µM
[23] = second compound 0.03 µM, first compound 3.16 µM
[24] = second compound 0.03 µM, first compound 10 µM
[25] = second compound 0.0949 µM, first compound 0.0316 µM
[26] = second compound 0.0949 µM, first compound 0.1 µM
[27] = second compound 0.0949 µM, first compound 0.316 µM
[28] = second compound 0.0949 µM, first compound 1 µM
[29] = second compound 0.0949 µM, first compound 3.16 µM
[30] = second compound 0.0949 µM, first compound 10 µM
[31] = second compound 0.3 µM, first compound 0.0316 µM
[32] = second compound 0.3 µM, first compound 0.1 µM
[33] = second compound 0.3 µM, first compound 0.316 µM
[34] = second compound 0.3 µM, first compound 1 µM
[35] = second compound 0.3 µM, first compound 3.16 µM
[36] = second compound 0.3 µM, first compound 10 µM
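Further: viability read after seven days of drug exposure.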
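Wherever viability, T/C is given: 100% = DMSO vehicle control viability.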

CC1(O)CCCC1n1c(=O)c(C(F)F)cc2cnc(NC3CCN(S(C)(=O)=O)CC3)nc21 (stereo not given) + CCn1c(-c2cccnc2C(C)OC)c2c3cc(ccc31)N1CCOC(CC(NC(=O)C(C(C)C)N(C)C(=O)C3(F)CCN(C(=O)C#CC(C)(C)N(C)C)CC3)C(=O)N3CCCC(N3)C(=O)OCC(C)(C)C2)C1
> 10000 nM: IC50 (second compound 0.000949 µM) | IC50 (second compound 0.003 µM) | IC50 (second compound 0.00949 µM) | IC50 (second compound 0.03 µM) | IC50 (second compound 0.0949 µM)
9980 nM: IC50 (second compound 0.3 µM)
inactive: viability, T/C [1] 102% | viability, T/C [2] 104% | viability, T/C [3] 90.7% | viability, T/C [4] 104% | viability, T/C [5] 93.1% | viability, T/C [6] 79.4% | viability, T/C [7] 102% | viability, T/C [8] 98.7% | viability, T/C [9] 95.9% | viability, T/C [10] 103% | viability, T/C [11] 125% | viability, T/C [12] 86.3% | viability, T/C [13] 108% | viability, T/C [14] 80.8% | viability, T/C [15] 97.5% | viability, T/C [16] 87.6% | viability, T/C [17] 124% | viability, T/C [18] 88.6% | viability, T/C [19] 90.2% | viability, T/C [20] 80% | viability, T/C [21] 81.3% | viability, T/C [22] 97.9% | viability, T/C [23] 115% | viability, T/C [24] 73.6% | viability, T/C [25] 77.3% | viability, T/C [26] 95.7% | viability, T/C [27] 89.4% | viability, T/C [28] 113% | viability, T/C [29] 124% | viability, T/C [30] 71.3% | viability, T/C [31] 77% | viability, T/C [32] 94% | viability, T/C [33] 85% | viability, T/C [34] 95.7% | viability, T/C [35] 95.9% | viability, T/C [36] 49.9%

CCC(CC)c1cc(NC2CCC(N)C2)n2nccc2n1 (stereo not given) + CCn1c(-c2cccnc2C(C)OC)c2c3cc(ccc31)N1CCOC(CC(NC(=O)C(C(C)C)N(C)C(=O)C3(F)CCN(C(=O)C#CC(C)(C)N(C)C)CC3)C(=O)N3CCCC(N3)C(=O)OCC(C)(C)C2)C1
1800 nM: IC50 (second compound 0.00949 µM)
active: viability, T/C [12] 9.28%
1810 nM: IC50 (second compound 0.003 µM)
1880 nM: IC50 (second compound 0.000949 µM)
1660 nM: IC50 (second compound 0.0949 µM)
1900 nM: IC50 (second compound 0.03 µM)
1460 nM: IC50 (second compound 0.3 µM)
inactive: viability, T/C [1] 82.4% | viability, T/C [2] 104% | viability, T/C [3] 100% | viability, T/C [4] 94.6% | viability, T/C [5] 13.2% | viability, T/C [6] 12.6% | viability, T/C [7] 106% | viability, T/C [8] 88.4% | viability, T/C [9] 100% | viability, T/C [10] 81.5% | viability, T/C [11] 20.3% | viability, T/C [13] 82.2% | viability, T/C [14] 82.4% | viability, T/C [15] 111% | viability, T/C [16] 87.9% | viability, T/C [17] 13.3% | viability, T/C [18] 10.4% | viability, T/C [19] 86.7% | viability, T/C [20] 90.8% | viability, T/C [21] 97.6% | viability, T/C [22] 90.5% | viability, T/C [23] 17.7% | viability, T/C [24] 12.2% | viability, T/C [25] 89.2% | viability, T/C [26] 83.1% | viability, T/C [27] 86.8% | viability, T/C [28] 78.8% | viability, T/C [29] 13.3% | viability, T/C [30] 11.5% | viability, T/C [31] 85.3% | viability, T/C [32] 77% | viability, T/C [33] 85.2% | viability, T/C [34] 68.3% | viability, T/C [35] 12.6% | viability, T/C [36] 11%

CCN1CCN(Cc2ccc(Nc3ncc(F)c(-c4cc(F)c5nc(C)n(C(C)C)c5c4)n3)nc2)CC1 + CCn1c(-c2cccnc2C(C)OC)c2c3cc(ccc31)N1CCOC(CC(NC(=O)C(C(C)C)N(C)C(=O)C3(F)CCN(C(=O)C#CC(C)(C)N(C)C)CC3)C(=O)N3CCCC(N3)C(=O)OCC(C)(C)C2)C1
inactive: viability, T/C (second compound 0.000949 µM, first compound 0.00316 µM) 109% | viability, T/C (second compound 0.000949 µM, first compound 0.01 µM) 88.1% | viability, T/C [1] 84.9% | viability, T/C [2] 74.2% | viability, T/C [3] 99.1% | viability, T/C [4] 87.1% | viability, T/C (second compound 0.003 µM, first compound 0.00316 µM) 100% | viability, T/C (second compound 0.003 µM, first compound 0.01 µM) 86.3% | viability, T/C [7] 86.3% | viability, T/C [8] 82.3% | viability, T/C [9] 86.2% | viability, T/C [10] 93% | viability, T/C (second compound 0.00949 µM, first compound 0.00316 µM) 118% | viability, T/C (second compound 0.00949 µM, first compound 0.01 µM) 84.3% | viability, T/C [13] 87.1% | viability, T/C [14] 88.9% | viability, T/C [15] 91.2% | viability, T/C [16] 53.9% | viability, T/C (second compound 0.03 µM, first compound 0.00316 µM) 96.6% | viability, T/C (second compound 0.03 µM, first compound 0.01 µM) 88.1% | viability, T/C [19] 74.4% | viability, T/C [20] 84.4% | viability, T/C [21] 107% | viability, T/C [22] 90.7% | viability, T/C (second compound 0.0949 µM, first compound 0.00316 µM) 99.2% | viability, T/C (second compound 0.0949 µM, first compound 0.01 µM) 79% | viability, T/C [25] 91.8% | viability, T/C [26] 87.3% | viability, T/C [27] 60.6% | viability, T/C [28] 76.6% | viability, T/C (second compound 0.3 µM, first compound 0.00316 µM) 87.8% | viability, T/C (second compound 0.3 µM, first compound 0.01 µM) 83.2% | viability, T/C [31] 84.9% | viability, T/C [32] 79% | viability, T/C [33] 65.9% | viability, T/C [34] 60.6%
> 1000 nM: IC50 (second compound 0.000949 µM) | IC50 (second compound 0.003 µM) | IC50 (second compound 0.00949 µM) | IC50 (second compound 0.03 µM) | IC50 (second compound 0.0949 µM) | IC50 (second compound 0.3 µM)

Cc1nc(N2CCC3(CC2)COC(C)C3N)c(CO)nc1Sc1ccnc(N)c1Cl (stereo not given) + CCn1c(-c2cccnc2C(C)OC)c2c3cc(ccc31)N1CCOC(CC(NC(=O)C(C(C)C)N(C)C(=O)C3(F)CCN(C(=O)C#CC(C)(C)N(C)C)CC3)C(=O)N3CCCC(N3)C(=O)OCC(C)(C)C2)C1
2820 nM: IC50 (second compound 0.3 µM)
> 10000 nM: IC50 (second compound 0.000949 µM) | IC50 (second compound 0.003 µM) | IC50 (second compound 0.00949 µM) | IC50 (second compound 0.03 µM) | IC50 (second compound 0.0949 µM)
inactive: viability, T/C [1] 84.9% | viability, T/C [2] 93.2% | viability, T/C [3] 75.4% | viability, T/C [4] 64.3% | viability, T/C [5] 60.4% | viability, T/C [6] 61.3% | viability, T/C [7] 94.2% | viability, T/C [8] 70.6% | viability, T/C [9] 71.4% | viability, T/C [10] 63.2% | viability, T/C [11] 67.1% | viability, T/C [12] 47.3% | viability, T/C [13] 104% | viability, T/C [14] 82% | viability, T/C [15] 83.9% | viability, T/C [16] 57.8% | viability, T/C [17] 67.1% | viability, T/C [18] 49.3% | viability, T/C [19] 75% | viability, T/C [20] 85.8% | viability, T/C [21] 63% | viability, T/C [22] 63.8% | viability, T/C [23] 65.5% | viability, T/C [24] 53.4% | viability, T/C [25] 78.2% | viability, T/C [26] 83.7% | viability, T/C [27] 74% | viability, T/C [28] 68.1% | viability, T/C [29] 63% | viability, T/C [30] 52.7% | viability, T/C [31] 85.2% | viability, T/C [32] 70.9% | viability, T/C [33] 70.5% | viability, T/C [34] 51.4% | viability, T/C [35] 51.4% | viability, T/C [36] 43.5%

NC1c2ccccc2OC12CCN(c1cnc3c(N4CCCc5ncccc54)n[nH]c3n1)CC2 (stereo not given) + CCn1c(-c2cccnc2C(C)OC)c2c3cc(ccc31)N1CCOC(CC(NC(=O)C(C(C)C)N(C)C(=O)C3(F)CCN(C(=O)C#CC(C)(C)N(C)C)CC3)C(=O)N3CCCC(N3)C(=O)OCC(C)(C)C2)C1
665 nM: IC50 (second compound 0.3 µM)
623 nM: IC50 (second compound 0.03 µM)
914 nM: IC50 (second compound 0.000949 µM)
inactive: viability, T/C [1] 80.3% | viability, T/C [2] 78.3% | viability, T/C [3] 61.7% | viability, T/C [4] 49.1% | viability, T/C [5] 50.5% | viability, T/C [6] 43.2% | viability, T/C [7] 88.9% | viability, T/C [8] 70.5% | viability, T/C [9] 60.6% | viability, T/C [10] 45.7% | viability, T/C [11] 55.7% | viability, T/C [12] 38.6% | viability, T/C [13] 95.2% | viability, T/C [14] 58.1% | viability, T/C [15] 62.7% | viability, T/C [16] 54.6% | viability, T/C [17] 54.1% | viability, T/C [18] 32.8% | viability, T/C [19] 79.3% | viability, T/C [20] 63.4% | viability, T/C [21] 53% | viability, T/C [22] 45.1% | viability, T/C [23] 50.6% | viability, T/C [24] 35.3% | viability, T/C [25] 67% | viability, T/C [26] 67.4% | viability, T/C [27] 53.2% | viability, T/C [28] 47.4% | viability, T/C [29] 46.2% | viability, T/C [30] 31.7% | viability, T/C [31] 75.3% | viability, T/C [32] 46.4% | viability, T/C [33] 60.4% | viability, T/C [34] 51.8% | viability, T/C [35] 38.9% | viability, T/C [36] 27.1%
1370 nM: IC50 (second compound 0.003 µM)
973 nM: IC50 (second compound 0.00949 µM)
940 nM: IC50 (second compound 0.0949 µM)
